Experimental data from US20200361871A1 (Enterprise Therapeutics Ltd., priority 2018, published 2020).
pEC50: −log10 of the molar value.

Target: human TMEM16A (TMEM16Aabc variant) (Homo sapiens, UniProt Q5XXA6, DEL476-501, form not given)
Experiment: Automated whole-cell patch clamp (Qpatch) TMEM16A potentiator assay in FRT cells stably expressing human TMEM16A
Type: cell-based
Conditions: for % Potentiation @ 3.33 μM Avg: 3.33 μM solution of test compound, percentage increase of baseline TMEM16A current; for pEC50: calculated EC50, Qpatch TMEM16A current at +70 mV
Summary of the method: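 Potentiation was read as the rise in peak +70 mV current over baseline (%), from cumulative 5-min additions of compound. Recordings used whole-cell automated patch of FRT cells stably carrying human TMEM16Aabc, with pipette Ca2+ buffered to give ~20% maximal current. EC50 and efficacy came from concentration-response fits.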

human TMEM16A (TMEM16Aabc variant), sequence (Q5XXA6 with tags, fused parts or gaps DEL476-501): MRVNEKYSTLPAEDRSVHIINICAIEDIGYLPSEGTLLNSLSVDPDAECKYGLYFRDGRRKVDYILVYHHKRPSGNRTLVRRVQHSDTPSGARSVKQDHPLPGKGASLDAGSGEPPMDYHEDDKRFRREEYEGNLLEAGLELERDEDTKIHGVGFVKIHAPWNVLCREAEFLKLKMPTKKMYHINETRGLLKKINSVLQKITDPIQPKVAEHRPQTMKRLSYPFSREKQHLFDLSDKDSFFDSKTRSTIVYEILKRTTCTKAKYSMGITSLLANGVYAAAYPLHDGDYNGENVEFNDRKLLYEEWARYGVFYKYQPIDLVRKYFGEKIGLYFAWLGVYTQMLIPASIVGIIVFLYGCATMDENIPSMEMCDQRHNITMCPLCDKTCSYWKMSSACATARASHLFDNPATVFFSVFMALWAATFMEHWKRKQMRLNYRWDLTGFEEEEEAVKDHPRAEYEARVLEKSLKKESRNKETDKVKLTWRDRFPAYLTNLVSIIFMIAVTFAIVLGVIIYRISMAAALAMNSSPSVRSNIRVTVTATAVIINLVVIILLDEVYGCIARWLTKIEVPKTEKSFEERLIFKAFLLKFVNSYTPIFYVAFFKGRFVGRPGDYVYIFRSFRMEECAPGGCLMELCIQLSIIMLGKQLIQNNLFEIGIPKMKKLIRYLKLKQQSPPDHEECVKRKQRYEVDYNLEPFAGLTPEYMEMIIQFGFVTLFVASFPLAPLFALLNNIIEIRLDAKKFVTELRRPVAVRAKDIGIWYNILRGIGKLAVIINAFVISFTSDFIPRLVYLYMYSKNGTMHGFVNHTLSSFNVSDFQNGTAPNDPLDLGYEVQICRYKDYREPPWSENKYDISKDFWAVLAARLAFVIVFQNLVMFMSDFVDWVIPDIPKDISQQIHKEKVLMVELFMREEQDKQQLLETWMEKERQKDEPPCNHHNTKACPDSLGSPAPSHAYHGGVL

Row | SMILES | % Potentiation @ 3.33 μM Avg | pEC50
1 | CC(C)(C)NC(=O)c1cc(NC(=O)Cc2cc(Cl)ccc2O)ccc1O [Example 11, N-tert-Butyl-5-[[2-(5-chloro-2-hydroxy-phenyl)acetyl]amino]-2-hydroxy-benzamide] | 76% | 6.05
2 | CC(C)(C)NC(=O)c1cccc(NC(=O)Cc2cc(C#N)ccc2O)c1 [Example 12, N-tert-Butyl-3-[[2-(5-cyano-2-hydroxy-phenyl)acetyl]amino] benzamide] | 112% | 5.75
3 | COC(=O)c1ccc(O)c(CC(=O)Nc2ccnc(C(=O)NC(C)(C)C)c2)c1 [Example 13, Methyl 3-[2-[[2-(tert-butylcarbamoyl)-4-pyridyl]amino]-2-oxo-ethyl]-4-hydroxy-benzoate] | 245% | 6.00
4 | CC(C)(C)NC(=O)c1ccc(O)c(NC(=O)Cc2cc(Cl)ccc2O)c1 [Example 14, N-tert-Butyl-3-[[2-(5-chloro-2-hydroxy-phenyl)acetyl]amino]-4-hydroxy-benzamide] | 58% | –
5 | Cc1ccc(O)c(CC(=O)Nc2ccnc(C(=O)NC(C)(C)C)c2)c1 [Example 15, N-tert-Butyl-4-[[2-(2-hydroxy-5-methyl-phenyl)acetyl]amino]pyridine-2-carboxamide] | 200% | 6.89
6 | COc1ccc(C(=O)NC(C)(C)C)cc1NC(=O)Cc1cc(Cl)ccc1O [Example 16, N-tert-Butyl-3-[[2-(5-chloro-2-hydroxy-phenyl)acetyl]amino]-4-methoxy-benzamide] | 63% | –
7 | CC(C)(C)NC(=O)c1cc(NC(=O)Cc2cc(Cl)ccc2O)ccc1F [Example 17, N-tert-Butyl-5-[[2-(5-chloro-2-hydroxy-phenyl)acetyl]amino]-2-fluoro-benzamide] | 173% | 5.83
8 | CC(C)(C)NC(=O)c1cc(F)cc(NC(=O)Cc2cc(Cl)ccc2O)c1 [Example 18, N-tert-Butyl-3-[[2-(5-chloro-2-hydroxy-phenyl)acetyl]amino]-5-fluoro-benzamide] | 405% | 6.35
9 | CC(C)(C)NC(=O)c1cc(NC(=O)Cc2ncccc2O)ccn1 [Example 19, N-tert-Butyl-4-[[2-(3-hydroxy-2-pyridyl)acetyl]amino]pyridine-2-carboxamide] | 57% | –
10 | CC(C)(C)NC(=O)c1cc(NC(=O)Cc2cc(F)ccc2O)ccn1 [Example 20, N-tert-Butyl-4-[[2-(5-fluoro-2-hydroxy-phenyl)acetyl]amino]pyridine-2-carboxamide] | 111% | 6.66
11 | C#CC(C)(C)NC(=O)c1cc(NC(=O)CC(C)(C)C)ccn1 [Example 22.1, 4-(3,3-Dimethylbutanoylamino)-N-(1,1-dimethylprop-2-ynyl)pyridine-2-carboxamide] | 114% | –
12 | C#CC(C)(C)NC(=O)c1cc(NC(=O)CC2CCCC2)ccn1 [Example 22.2, 4-[(2-Cyclopentylacetyl)amino]-N-(1,1-dimethylprop-2-ynyl)pyridine-2-carboxamide] | 157% | 6.59
13 | C#CC(C)(C)NC(=O)c1cc(NC(=O)Cc2ccncc2Cl)ccn1 [Example 22.3, 4-[[2-(3-Chloro-4-pyridyl)acetyl]amino]-N-(1,1-dimethylprop-2-ynyl)pyridine-2-carboxamide] | 132% | –
14 | N#CC1(NC(=O)c2cc(NC(=O)Cc3ccc(Cl)cc3)ccn2)CC1 [Example 23, 4-[[2-(4-Chlorophenyl)acetyl]amino]-N-(1-cyanocyclopropyl)pyridine-2-carboxamide] | 93% | –
15 | N#CC1(NC(=O)c2cc(NC(=O)Cc3cccc(Cl)c3)ccn2)CC1 [Example 23.1, 4-[[2-(3-Chlorophenyl)acetyl]amino]-N-(1-cyanocyclopropyl)pyridine-2-carboxamide] | 150% | –
